According to patent publication US20260001876A1, “Compounds and Their Use as PDE4 Activators” (Mironid Limited, priority 2022, published 2026):

Assays:
[1] = test system: m-IMCD3 cells; test: Inhibition of PGE2-stimulated in vitro cyst formation in m-IMCD3 cells (3D culture); format: cell-based; details: Mus musculus, mIMCD3, 144 h, mean cyst area, 100% for (DMSO + PGE2) and 0% for DMSO control, 6 days of culture; for activity at 10 µM: read-out: % Cyst area* after incubation with 10 μM test compound; for activity at 3 µM: read-out: % Cyst area* after incubation with 3 μM test compound
Experimental: (§1) HEK 293 and MDCK cells (Public Health England, Cell Culture Collections) were maintained in Dulbecco's Modified Eagle's Medium (DMEM) supplemented with 10% (v/v) fetal bovine serum (FBS) (Seralab), 2 mM L-glutamine and 100 U/mL penicillin streptomycin cocktail (ThermoFisher); termed complete media. Clonal HEK 293 cell lines were maintained in complete media supplemented with 0.6 mg/ml G418 (Enzo Life Sciences). Mouse inner medullary collecting duct (m-IMCD3) cells [American Type Culture Collection (ATCC)] were maintained in media consisting of DMEM/Hams F-12 50/50 Mix (DMEM F12; Corning) supplemented with penicillin streptomycin cocktail (100 U/mL) and FBS (10% v/v) (DMEM F12-10% FBS).
Experiment 3: Inhibition of In Vitro Cyst Formation in m-IMCD3 Cells Treated with PDE4 Long Form Activators
The mouse Inner Medullary Collecting Duct cell line (m-IMCD3) spontaneously forms cystic spheroids in 3D culture with a Type 1 collagen/Matrigel extracellular matrix. This process can be stimulated with agents which raise intracellular cAMP and is used as an in vitro model for the formation of cystic structures in the kidneys of patients with ADPKD.
Rat Collagen I (Fisher Scientific) is prepared on ice by neutralising with 1M NaOH and diluting with a 2× volume of DMEM/F12+10% FBS. This is mixed 1:1.1 with ice cold Matrigel (Corning) for coating plates (coating mix), and 1:0.93 with Matrigel for cell plating (plating mix).
The assay is conducted in the wells of a 96-well plate culture dish using a total volume of 130 μL of collagen/Matrigel/DMEM F12-10% FBS suspension in growth media for each matrix plug per individual well. Initially, 30 μL of collagen/Matrigel/DMEM F12-10% FBS (coating mix) is added into the well of a 96 well plate and the collagen is set to a gel by incubating at 37° C. for at least 15 minutes. A second layer of 100 μL collagen/Matrigel suspension (plating mix) containing m-IMCD3 cells (2.75×10^6 m-IMCD3 cells per 96-well plate) is layered over the coating mix and the collagen/Matrigel/cell mix again set to a gel by incubating at 37° C. Cell cultures are maintained at 37° C. in an atmosphere of 5% CO2, 95% air.
Between 18 and 24 h after plating, test compound(s) as DMSO stock solutions [0.1% (v/v) final DMSO concentration] and PGE2 (100 nM final concentration) in DMEM F12-10% FBS are added in quadruplicate wells per condition. Media, together with the test compound and PGE2 are replenished after 2 or 3 days. After 6 days of culture z stack images of the wells are captured using the Nikon Eclipse Ti2-E microscope. Nikon General Analysis software is used to measure the following parameters in each well: the mean cyst area, the number of cysts, and the total cyst area.
PDE4 long form activators inhibited in vitro cyst formation in m-IMCD3 cells. Data are shown in Table 4 as mean cyst area (%), compared to 100% for (DMSO+PGE2) and 0% for DMSO control.

[2] = test system: m-IMCD3 cells expressing PDE4 long forms; test: cAMP levels in assay media of PGE2-stimulated m-IMCD3 3D cell culture; format: cell-based; details: Mus musculus, mIMCD3, compared to 100% for (DMSO + PGE2), read-out: cAMP level (% of PGE2-stimulated); for activity at 10 µM: 10 μM test compound; for activity at 3 µM: 3 μM test compound
Experimental: as §1
Experiment 2: Reduction of CAMP Levels in m-IMCD3 Cell Culture Treated with PDE4 Long Form Activators
Activation of intracellular PDE4 long forms leads to a reduction of both intracellular CAMP and externalised cAMP (Omar et al., PNAS 116:13320-13329, 2019). This reduction may be measured in the cell culture media supernatant of 3D cystic cell cultures, such as in the m-IMCD3 cell cyst suppression assay described in Experiment 3.
Following the completion of the m-IMCD3 cell cyst suppression assay (Experiment 3), the CAMP levels in the assay media from individual or pooled assay wells was measured using a CAMP ELISA kit (Enzo Life Sciences) or a LANCE Ultra CAMP kit (PerkinElmer) according to the manufacturer's instructions.
Treatment with PDE4 long form activators reduced CAMP levels in PGE2-stimulated m-IMCD3 cell culture.

`O=C(CC1CCC(F)(F)CC1)N1CCc2nc(N3C4CCC3CNC4)ccc2C1` [Example 40, 1-(2-(3,8-diazabicyclo[3.2.1]octan-8-yl)-7,8-dihydro-1,6-naphthyridin-6(5H)-yl)-2-(4,4-difluorocyclohexyl)ethan-1-one] showed an activity at 10 µM [1] of 0% and an activity at 10 µM [2] of 43%.
For `CC(C)(C)CC(=O)N1CCc2nc(N3C4CCC3CNC4)ccc2C1` [Example 42, 1-(2-(3,8-diazabicyclo[3.2.1]octan-8-yl)-7,8-dihydro-1,6-naphthyridin-6(5H)-yl)-3,3-dimethylbutan-1-one], the activity at 10 µM [1] was 0% and the activity at 3 µM [2] was 28%.
`CN1CC2CCC(C1)N2c1ccc2c(n1)CN(C(=O)NC1CCC(F)(F)CC1)C2` [Example 91, N-(4,4-difluorocyclohexyl)-2-(3-methyl-3,8-diazabicyclo[3.2.1]octan-8-yl)-5,7-dihydro-6H-pyrrolo[3,4-b]pyridine-6-carboxamide] gave an activity at 10 µM [1] of -5% and an activity at 3 µM [2] of 31%.
In the case of `O=C(CC1CCC(F)(F)CC1)N1CCc2nc(N3CCNCC3)ccc2C1` [Example 111, 2-(4,4-difluorocyclohexyl)-1-(2-(piperazin-1-yl)-7,8-dihydro-1,6-naphthyridin-6(5H)-yl)ethan-1-one], the activity at 10 µM [1] is reported as -3% and the activity at 10 µM [2] is reported as 38%.
Work on `O=C(CC1CCCC1)N1CCc2nc(N3CCN4CCC[C@@H]4C3)ccc2C1` [Example 112, (R)-2-cyclopentyl-1-(2-(hexahydropyrrolo[1,2-a]pyrazin-2 (1H)-yl)-7,8-dihydro-1,6-naphthyridin-6(5H)-yl)ethan-1-one] yielded an activity at 10 µM [1] of -6% and an activity at 3 µM [2] of 54%.
Work on `O=C(CC1CCCC1)N1CCc2nc(N3CCN4CCC[C@H]4C3)ccc2C1` [Example 113, (S)-2-cyclopentyl-1-(2-(hexahydropyrrolo[1,2-a]pyrazin-2 (1H)-yl)-7,8-dihydro-1,6-naphthyridin-6(5H)-yl)ethan-1-one] yielded an activity at 10 µM [1] of -4% and an activity at 3 µM [2] of 63%.
In the case of `O=C(CC1CCCC1)N1CCc2nc(C3CCNCC3)ccc2C1` [Example 114, 2-cyclopentyl-1-(2-(piperidin-4-yl)-7,8-dihydro-1,6-naphthyridin-6(5H)-yl)ethan-1-one], the activity at 10 µM [1] is reported as -2% and the activity at 3 µM [2] is reported as 47%.
With `O=C(CC1CCCC1)N1CCc2nc(C3CCN(CCO)CC3)ccc2C1` [Example 115, 2-cyclopentyl-1-(2-(1-(2-hydroxyethyl)piperidin-4-yl)-7,8-dihydro-1,6-naphthyridin-6(5H)-yl)ethan-1-one] the activity at 10 µM [1] was -3% and the activity at 3 µM [2] was 32%.
For `COc1ccccc1C(=O)N1CCc2nc(N3C4CCC3CNC4)ccc2C1` [Example 121, (2-(3,8-diazabicyclo[3.2.1]octan-8-yl)-7,8-dihydro-1,6-naphthyridin-6(5H)-yl)(2-methoxyphenyl)methanone], the activity at 3 µM [1] was 8% and the activity at 3 µM [2] was 44%.
`Cc1ccccc1C(=O)N1CCc2nc(N3C4CCC3CNC4)ccc2C1` [Example 122, (2-(3,8-diazabicyclo[3.2.1]octan-8-yl)-7,8-dihydro-1,6-naphthyridin-6(5H)-yl)(o-tolyl)methanone] gave an activity at 3 µM [1] of -1% and an activity at 3 µM [2] of 66%.
`CC1(CC(=O)N2Cc3ccc(N4C5CCC4CNC5)nc3C2)CCCC1` [Example 129, 1-(2-(3,8-diazabicyclo[3.2.1]octan-8-yl)-5,7-dihydro-6H-pyrrolo[3,4-b]pyridin-6-yl)-2-(1-methylcyclopentyl)ethan-1-one] showed an activity at 10 µM [1] of 2% and an activity at 3 µM [2] of 44%.
Work on `O=C(Cc1ccccc1)N1CCc2nc(N3CCNCC3)ncc2C1` [Example 134, 2-phenyl-1-(2-(piperazin-1-yl)-7,8-dihydropyrido[4,3-d]pyrimidin-6(5H)-yl)ethan-1-one] yielded an activity at 3 µM [1] of 7% and an activity at 3 µM [2] of 55%.
In the case of `N#Cc1ccc(CC(=O)N2CCc3nc(N4C5CCC4CNC5)ncc3C2)cc1` [Example 136, 4-(2-(2-(3,8-diazabicyclo[3.2.1]octan-8-yl)-7,8-dihydropyrido[4,3-d]pyrimidin-6(5H)-yl)-2-oxoethyl)benzonitrile], the activity at 3 µM [1] is reported as 1% and the activity at 3 µM [2] is reported as 38%.
For `O=C(c1ccc(F)cc1)N1CCc2nc(N3CCNCC3)ncc2C1` [Example 147, (4-fluorophenyl)(2-(piperazin-1-yl)-7,8-dihydropyrido[4,3-d]pyrimidin-6(5H)-yl)methanone], the activity at 3 µM [1] was 4% and the activity at 3 µM [2] was 40%.
With `CCN1CCN(c2ccc3c(n2)CCN(C(=O)CC(C)(C)C)C3)CC1` [Example 150, 1-(2-(4-ethylpiperazin-1-yl)-7,8-dihydro-1,6-naphthyridin-6(5H)-yl)-3,3-dimethylbutan-1-one] the activity at 3 µM [1] was -1% and the activity at 3 µM [2] was 49%.
With `O=C(CC1CCCC1)N1CCc2nc(N3C4CCCC3CNC4)ccc2C1` [Example 151, 1-(2-(3,9-diazabicyclo[3.3.1]nonan-9-yl)-7,8-dihydro-1,6-naphthyridin-6(5H)-yl)-2-cyclopentylethan-1-one] the activity at 3 µM [1] was -8% and the activity at 3 µM [2] was 51%.
With `O=C(CC1CCCC1)N1CCc2nc(N3CC4CCCC(C3)N4)ccc2C1` [Example 152, 1-(2-(3,9-diazabicyclo[3.3.1]nonan-3-yl)-7,8-dihydro-1,6-naphthyridin-6(5H)-yl)-2-cyclopentylethan-1-one] the activity at 3 µM [1] was -6% and the activity at 3 µM [2] was 41%.
Work on `O=C(CC1CCCC1)N1CCc2nc(N3C[C@@H]4C[C@H]3CN4)ccc2C1` [Example 155, 1-(2-((1S,4S)-2,5-diazabicyclo[2.2.1]heptan-2-yl)-7,8-dihydro-1,6-naphthyridin-6(5H)-yl)-2-cyclopentylethan-1-one] yielded an activity at 3 µM [2] of 63%.
Work on `O=C(CC1CCCC1)N1CCc2nc(N3C[C@H]4C[C@@H]3CN4)ccc2C1` [Example 156, 1-(2-((1R,4R)-2,5-diazabicyclo[2.2.1]heptan-2-yl)-7,8-dihydro-1,6-naphthyridin-6(5H)-yl)-2-cyclopentylethan-1-one] yielded an activity at 3 µM [1] of 4% and an activity at 3 µM [2] of 49%.
`O=S(=O)(Cc1ccc(F)cc1)N1CCc2nc(N3C4CCC3CNC4)ccc2C1` [Example 158, 2-(3,8-diazabicyclo[3.2.1]octan-8-yl)-6-((4-fluorobenzyl)sulfonyl)-5,6,7,8-tetrahydro-1,6-naphthyridine] showed an activity at 3 µM [1] of 5% and an activity at 3 µM [2] of 46%.
`O=S(=O)(Cc1ccc(F)cc1)N1CCc2nc(N3CCNCC3)ccc2C1` [Example 160, 6-((4-fluorobenzyl)sulfonyl)-2-(piperazin-1-yl)-5,6,7,8-tetrahydro-1,6-naphthyridine] showed an activity at 3 µM [1] of -4% and an activity at 3 µM [2] of 35%.
Molecule `Cc1ncccc1-c1ccc2c(n1)CCN(C(=O)CC1CCCC1)C2` [Example 181, 2-cyclopentyl-1-(2-(2-methylpyridin-3-yl)-7,8-dihydro-1,6-naphthyridin-6(5H)-yl)ethan-1-one] has an activity at 3 µM [1] of 26%.
`Cc1cncc(-c2ccc3c(n2)CCN(C(=O)CC2CCCC2)C3)c1` [Example 182, 2-cyclopentyl-1-(2-(5-methylpyridin-3-yl)-7,8-dihydro-1,6-naphthyridin-6(5H)-yl)ethan-1-one] was tested, and the activity at 3 µM [1] was 50%.
